Results as given in publication PMC2064394 (The Journal of Cell Biology, 2006).

Target: T1, recombinant C. elegans kinesin-II (heterotrimeric kinesin-2) (Caenorhabditis elegans, UniProt Q19633+Q965T6)
T1 sequence (Q19633 1-782): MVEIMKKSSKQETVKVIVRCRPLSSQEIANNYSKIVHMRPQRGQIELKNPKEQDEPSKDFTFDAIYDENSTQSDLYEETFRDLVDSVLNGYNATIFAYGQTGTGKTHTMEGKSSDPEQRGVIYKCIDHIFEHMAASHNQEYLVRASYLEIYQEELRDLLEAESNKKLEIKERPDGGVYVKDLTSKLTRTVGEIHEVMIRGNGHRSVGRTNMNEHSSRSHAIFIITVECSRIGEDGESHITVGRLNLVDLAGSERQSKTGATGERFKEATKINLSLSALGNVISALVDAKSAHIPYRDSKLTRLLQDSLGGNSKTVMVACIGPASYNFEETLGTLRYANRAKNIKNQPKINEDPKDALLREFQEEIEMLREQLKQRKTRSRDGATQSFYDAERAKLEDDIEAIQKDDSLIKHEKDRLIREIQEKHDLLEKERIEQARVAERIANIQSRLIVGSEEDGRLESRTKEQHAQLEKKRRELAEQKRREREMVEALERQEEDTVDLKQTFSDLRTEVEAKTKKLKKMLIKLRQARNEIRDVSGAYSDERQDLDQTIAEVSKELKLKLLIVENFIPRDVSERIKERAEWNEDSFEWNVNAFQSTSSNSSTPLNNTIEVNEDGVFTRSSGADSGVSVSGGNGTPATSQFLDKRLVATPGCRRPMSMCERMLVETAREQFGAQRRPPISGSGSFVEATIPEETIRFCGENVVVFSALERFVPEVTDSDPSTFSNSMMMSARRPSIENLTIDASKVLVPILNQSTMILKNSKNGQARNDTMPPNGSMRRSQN
T1 sequence (Q965T6 1-646): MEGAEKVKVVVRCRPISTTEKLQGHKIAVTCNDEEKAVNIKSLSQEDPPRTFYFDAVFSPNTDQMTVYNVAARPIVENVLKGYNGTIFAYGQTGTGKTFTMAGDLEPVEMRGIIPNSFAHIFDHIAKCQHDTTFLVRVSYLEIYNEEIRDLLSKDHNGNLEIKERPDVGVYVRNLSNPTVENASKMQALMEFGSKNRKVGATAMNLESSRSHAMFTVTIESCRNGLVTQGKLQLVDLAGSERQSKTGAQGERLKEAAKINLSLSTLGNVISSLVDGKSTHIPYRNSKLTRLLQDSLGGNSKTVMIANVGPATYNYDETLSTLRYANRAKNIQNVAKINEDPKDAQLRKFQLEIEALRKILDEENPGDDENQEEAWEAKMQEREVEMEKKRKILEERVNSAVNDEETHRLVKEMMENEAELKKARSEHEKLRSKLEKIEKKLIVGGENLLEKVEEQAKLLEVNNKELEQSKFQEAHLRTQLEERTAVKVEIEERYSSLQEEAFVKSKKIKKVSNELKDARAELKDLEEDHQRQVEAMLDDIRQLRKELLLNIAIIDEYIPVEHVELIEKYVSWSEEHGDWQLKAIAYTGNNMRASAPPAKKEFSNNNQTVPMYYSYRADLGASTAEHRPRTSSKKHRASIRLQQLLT
T1 sequence (G5EEE6 1-713 partner): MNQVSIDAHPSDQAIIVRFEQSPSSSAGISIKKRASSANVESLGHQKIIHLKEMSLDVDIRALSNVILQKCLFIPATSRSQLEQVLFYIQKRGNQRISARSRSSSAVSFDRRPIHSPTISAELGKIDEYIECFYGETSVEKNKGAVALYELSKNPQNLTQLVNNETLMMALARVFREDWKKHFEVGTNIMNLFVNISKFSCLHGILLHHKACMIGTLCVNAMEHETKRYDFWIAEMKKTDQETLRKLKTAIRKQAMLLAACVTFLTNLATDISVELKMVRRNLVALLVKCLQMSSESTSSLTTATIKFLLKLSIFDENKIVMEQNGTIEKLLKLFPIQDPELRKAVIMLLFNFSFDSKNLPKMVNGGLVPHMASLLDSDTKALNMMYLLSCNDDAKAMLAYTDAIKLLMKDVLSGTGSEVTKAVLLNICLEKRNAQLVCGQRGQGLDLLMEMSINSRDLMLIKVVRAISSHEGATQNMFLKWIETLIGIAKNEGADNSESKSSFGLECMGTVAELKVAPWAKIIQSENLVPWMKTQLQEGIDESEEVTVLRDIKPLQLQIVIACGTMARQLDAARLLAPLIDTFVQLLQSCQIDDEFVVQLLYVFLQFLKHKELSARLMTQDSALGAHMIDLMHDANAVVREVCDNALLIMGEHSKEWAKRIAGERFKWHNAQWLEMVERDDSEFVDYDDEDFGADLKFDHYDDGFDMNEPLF
Assay: microtubule gliding velocity assay
Type: biochemical
Conditions: read-out: Recombinant C. elegans kinesin-II; Mg-ATP; microtubules; 21°C

Km: 280 ± 50 µM
SMILES: Nc1ncnc2c1ncn2[C@@H]1O[C@H](COP(=O)(O)OP(=O)(O)OP(=O)(O)O)[C@@H](O)[C@H]1O [Mg-ATP]
